Assay results from US12404283B2, “c-MYC mRNA translation modulators and uses thereof in the treatment of cancer” (Anima Biotech Inc., priority 2022, dated 2025).
Counter-ions that a name gives are not always drawn.

Each molecule was assayed on c-Myc (assay: c-Myc immunofluorescence assay). Settings: A549 cells, 24 hours treatment, anti-c-Myc immunofluorescence.
Type: cell-based, human
In short: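 High-content imaging (20×) of PFA-fixed A549 cells immunostained for c-Myc with DAPI nuclei, after 24 h compound treatment at increasing concentrations. Per-cell c-Myc signal in identified cell regions was plotted against dose and fitted by logistic regression to give EC50.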
In the case of Cc1ccc(-c2cn3c(n2)sc2cc(C(=O)N4CCCCCC4)ccc23)cc1 [compound 102, Azepan-1-yl(2-(p-tolyl)benzo[d]imidazo[2,1-b]thiazol-7-yl)methanone], the “Myc Efficacy (−LogEC50)” value was “+ (+ >3 and <5)”. With O=C(NCCCN1CCCCCC1)c1ccc2c(c1)sc1nc(-c3ccccc3)cn12 [compound 103, N-(3-(azepan-1-yl)propyl)-2-phenylbenzo[d]imidazo[2,1-b]thiazole-7-carboxamide] the “Myc Efficacy (−LogEC50)” value was “+++ (+++ ≥6)”. In the case of O=C(c1ccc2c(c1)sc1nc(-c3ccc(F)cc3)cn12)N1CCCCCC1 [compound 104, azepan-1-yl(2-(4-fluorophenyl)benzo[d]imidazo[2,1-b]thiazol-7-yl)methanone], the “Myc Efficacy (−LogEC50)” value was “+ (+ >3 and <5)”. In the case of CCCSCCCNC(=O)c1ccc2c(c1)sc1nc(-c3ccc(F)cc3)cn12 [compound 105, 2-(4-fluorophenyl)-N-(3-(propylthio)propyl)benzo[d] imidazo[2,1-b]thiazole-7-carboxamide], the “Myc Efficacy (−LogEC50)” value was “+ (+ >3 and <5)”. With CCOc1ccc(-c2cn3c(n2)sc2cc(C(=O)N4CCCCCC4)ccc23)cc1 [compound 106, azepan-1-yl(2-(4-ethoxyphenyl)benzo[d]imidazo[2,1-b]thiazol-7-yl)methanone] the “Myc Efficacy (−LogEC50)” value was “+ (+ >3 and <5)”. In the case of CCN(CC)CCCNC(=O)c1ccc2c(c1)sc1nc(-c3ccccc3)cn12 [compound 107, N-(3-(diethylamino)propyl)-2-phenylbenzo[d]imidazo [2,1-b]thiazole-7-carboxamide], the “Myc Efficacy (−LogEC50)” value was “++ (++ ≥5 and <6)”. With CCCNC(=O)c1ccc2c(c1)sc1nc(-c3ccc(C)cc3)cn12 [compound 108, N-propyl-2-(p-tolyl)benzo[d]imidazo[2,1-b]thiazole-7-carboxamide] the “Myc Efficacy (−LogEC50)” value was “++ (++ ≥5 and <6)”. In the case of CCNC(=O)c1ccc2c(c1)sc1nc(-c3ccc(C)cc3)cn12 [compound 109, N-ethyl-2-(p-tolyl)benzo[d]imidazo[2,1-b]thiazole-7-carboxamide], the “Myc Efficacy (−LogEC50)” value was “++ (++ ≥5 and <6)”. For CC(=O)NCCCNC(=O)c1ccc2c(c1)sc1nc(-c3ccc(C)cc3)cn12 [compound 110, N-(3-acetamidopropyl)-2-(p-tolyl)benzo[d]imidazo[2,1-b]thiazole-7-carboxamide], the “Myc Efficacy (−LogEC50)” value was “− (− ≤3)”. For CCN(CC)CCCNC(=O)c1ccc2c(c1)sc1nc(-c3ccc(Cl)cc3)cn12 [compound 111, 2-(4-chlorophenyl)-N-(3-(diethylamino)propyl)benzo [d]imidazo[2,1-b]thiazole-7-carboxamide], the “Myc Efficacy (−LogEC50)” value was “++ (++ ≥5 and <6)”. With Cc1ccc(-c2cn3c(n2)sc2cc(C(=O)NC[C@H]4CCNC4)ccc23)cc1 [compound 114, (S)-N-(pyrrolidin-3-ylmethyl)-2-(p-tolyl)benzo[d]imidazo[2,1-b]thiazole-7-carboxamide formate] the “Myc Efficacy (−LogEC50)” value was “++ (++ ≥5 and <6)”. Cc1ccc(-c2cn3c(n2)sc2cc(C(=O)NCCCN)ccc23)cc1 [compound 115, N-(3-aminopropyl)-2-(p-tolyl)benzo[d]imidazo[2,1-b]thiazole-7-carboxamide] was tested, and the “Myc Efficacy (−LogEC50)” value was “+ (+ >3 and <5)”. For Cc1ccc(-c2cn3c(n2)sc2cc(C(=O)NC[C@@H]4CCNC4)ccc23)cc1 [compound 116, (R)-N-(pyrrolidin-3-ylmethyl)-2-(p-tolyl)benzo[d]imidazo [2,1-b]thiazole-7-carboxamide formate], the “Myc Efficacy (−LogEC50)” value was “++ (++ ≥5 and <6)”. In the case of Cc1ccc(-c2cn3c(n2)sc2cc(C(=O)NCC4CNC4)ccc23)cc1 [compound 117, N-(azetidin-3-ylmethyl)-2-(p-tolyl)benzo[d]imidazo [2,1-b]thiazole-7-carboxamide], the “Myc Efficacy (−LogEC50)” value was “+ (+ >3 and <5)”. With CCN(CC)CCCNC(=O)c1ccc2c(c1)sc1nc(-c3cccc(C)c3)cn12 [compound 118, N-(3-(diethylamino)propyl)-2-(m-tolyl)benzo[d]imidazo [2,1-b]thiazole-7-carboxamide] the “Myc Efficacy (−LogEC50)” value was “+++ (+++ ≥6)”.
